The values below come from patent US20080045535A1, “Prokineticin 2 receptor antagonists” (priority 2005, published 2008).

pIC50: −log10 of the molar value. Values joined by “and” are separate entries in the source; they are usually repeats but may differ in a detail not shown here. Identical values can stand only once.

The experiment deals with T1, HEK 293 GPR73 (prokineticin 1 receptor) expressing cells (Homo sapiens, UniProt Q8TCW9).
T1 construct: expressed in transfected cells; host or cells: HEK 293
T1 sequence (Q8TCW9 whole entry): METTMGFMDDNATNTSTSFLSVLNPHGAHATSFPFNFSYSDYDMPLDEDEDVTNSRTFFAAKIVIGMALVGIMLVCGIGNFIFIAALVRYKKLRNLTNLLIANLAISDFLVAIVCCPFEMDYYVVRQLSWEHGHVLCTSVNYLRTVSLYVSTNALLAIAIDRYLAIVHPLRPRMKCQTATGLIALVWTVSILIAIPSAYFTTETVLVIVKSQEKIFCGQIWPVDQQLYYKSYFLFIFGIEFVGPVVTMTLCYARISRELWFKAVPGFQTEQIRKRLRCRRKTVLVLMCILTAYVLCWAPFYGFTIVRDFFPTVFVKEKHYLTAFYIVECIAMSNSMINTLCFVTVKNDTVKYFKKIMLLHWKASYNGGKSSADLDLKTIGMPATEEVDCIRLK
Nature of the experiment: PK1 functional assay: screening for PK1 antagonists on the FLIPR (calcium fluorescence). The experiment is classed as cell-based. The following applies: HEK 293 GPR73 cells; for inhibition at 10 µM: HEK293, compound at 10 μM, read-out: Ca^2+ Mobilization % Inh @10 μM; for inhibition at 10 µM / Ca^2+ Mobilization % Inh @10 μM: multiple values = repeat tests; for pIC50: PK1 ligand at EC50, multiple values = repeat tests, read-out: Ca^2+ Mobilization IC50; for Ca^2+ Mobilization % Inh @10 μM: compound at 10 μM. Here is the method: At a time of 24 h prior to running the assay, in cell culture media (DMEM containing high Glucose and L-glutamine, 10% FBS, 1% Pen/Streptomycin, 1% Sodium Pyruvate, 20 mM HEPES, Zeocin 200 mg/L), 100 μL of 1.3*10^6/ml HEK 293 GPR73 (prokineticin 1 receptor) expressing cells were plated in a 96 well poly-d-lysine coated plate (Costar), and incubated at 37 C and 5% CO2. On the day in which the assay was run, the media was removed and 200 μL of 5× Calcium Plus Dye (Molecular Devices) which was previously resuspended with 200 mL of assay buffer [HBSS w/Ca^2+ and Mg^2+ w/o phenol red, 20 mM HEPES, 0.1% BSA, 10 mL probenecid (710 mg probenecid in 5 mL of 1N NaOH, to which was then added 5 mL HBSS containing 20 mM HEPES)] was added to each well of the 96-well plate. The plate was incubated at 37 C and 5% CO2 for 30 min in dark. The plate was removed and allowed to reach RT for 15 min in the dark. The assay was then run on the FLIPR. […] Baseline is described as the amount of relative fluorescence read when buffer alone is added to cells. Baseline was subtracted from all wells. Percent of control was calculated as follows:
(Baseline subtracted well value is divided by baseline subtracted max value)*100.
Percent inhibition is 100 minus the percent of control value.
IC50 values were calculated using GraphPad Prism.
Table 2 includes data generated from the PK1 functional assay described in Example 2.

The pIC50 is −log10 of the IC50, conventionally taken in molar units. As for `COc1ccc(Cn2c(NCCNC3=NCCN3)nc(=O)n(Cc3ccc(Cl)c(Cl)c3)c2=O)cc1` [Cpd 49, 3-(3,4-Dichloro-benzyl)-6-[2-(4,5-dihydro-1H-imidazol-2-ylamino)-ethylamino]-1-(4-methoxy-benzyl)-1H-[1,3,5]triazine-2,4-dione], the inhibition at 10 µM was 75% and the pIC50 is 5.70.

Consider `CC(=O)Nc1ccc(Cn2c(NCCNC(=N)N)nc(=O)n(Cc3ccc(Cl)c(Cl)c3)c2=O)cc1` [Cpd 50], for which the inhibition at 10 µM is 96% and the pIC50 is 6.61.

Turning to `N=C(N)NCCNc1nc(=O)n(Cc2ccc(Cl)c(Cl)c2)c(=O)n1Cc1ccc(C(N)=O)cc1` [Cpd 51, 4-[3-(3,4-Dichlorobenzyl)-6-(2-guanidinoethylamino)-2,4-dioxo-3,4-dihydro-2H-[1,3,5]triazin-1-yl-methyl]-benzamide], the inhibition at 10 µM worked out at 100% and the negative-log IC50 (pIC50) was 7.33.

Consider `CCOc1cccc(Cn2c(NCCNC(=N)N)nc(=O)n(Cc3ccc(Cl)c(Cl)c3)c2=O)c1` [Cpd 52], for which the inhibition at 10 µM came to 58% and the pIC50 was 5.19.

With `CCCNC(=N)NCCNc1nc(=O)n(Cc2ccc(Cl)c(Cl)c2)c(=O)n1Cc1ccc(OC)cc1` [Cpd 54], the inhibition at 10 µM amounted to 98%; the pIC50 was 7.85 and 8.22. Also, the “Ca^2+ Mobilization % Inh @10 μM” value (10 µM) was determined as 101%.

Take `COc1ccc(Cn2c(N3CCC(NC(=N)N)C3)nc(=O)n(Cc3ccc(Cl)c(Cl)c3)c2=O)cc1` (stereo not shown) [Cpd 55]: the inhibition at 10 µM came out at 58% and the pIC50 is 5.17.

In the case of `COc1ccc(Cn2c(N[C@@H]3CCCC[C@H]3NC(=N)N)nc(=O)n(Cc3ccc(Cl)cc3)c2=O)cc1` [Cpd 56], the inhibition at 10 µM is 98% and the pIC50 was 7.21.

As for `N=C(N)NCCNc1nc(=O)n(Cc2ccc(Cl)c(Cl)c2)c(=O)n1Cc1cccc(OC(F)F)c1` [Cpd 57], the inhibition at 10 µM worked out at 51% and the pIC50 is 5.09.

With `COc1ccc(Cn2c(NCCN(C(=N)N)C(C)C)nc(=O)n(Cc3ccc(Cl)c(Cl)c3)c2=O)cc1` [Cpd 58, N-{2-[5-(3,4-Dichloro-benzyl)-1-(4-methoxy-benzyl)-4,6-dioxo-1,4,5,6-tetrahydro-[1,3,5]triazin-2-ylamino]-ethyl}-N-isopropyl-guanidine], the pIC50 was 7.80. Also, the “Ca^2+ Mobilization % Inh @10 μM” value (10 µM) was 102% and 99% and 98%.

Take `CCN(CCNc1nc(=O)n(Cc2ccc(Cl)c(Cl)c2)c(=O)n1Cc1ccc(OC)cc1)C(=N)N` [Cpd 59]: the inhibition at 10 µM was 99%; the pIC50 is 7.30 and 7.46. Also, the “Ca^2+ Mobilization % Inh @10 μM” value (10 µM) is reported as 100%.

`COc1ccc(Cn2c(NCCN3CCNC3=N)nc(=O)n(Cc3ccc(Cl)c(Cl)c3)c2=O)cc1` [Cpd 60, 3-(3,4-Dichloro-benzyl)-6-[2-(2-imino-imidazolidin-1-yl)-ethylamino]-1-(4-methoxy-benzyl)-1H-[1,3,5]triazine-2,4-dione]: the inhibition at 10 µM came out at 100% and the pIC50 was 7.27.

For `CCCCNC(=N)NCCNc1nc(=O)n(Cc2ccc(Cl)c(Cl)c2)c(=O)n1Cc1ccc(OC)cc1` [Cpd 61], the inhibition at 10 µM was 102% and the pIC50 is 7.35.

With `COc1ccc(Cn2c(NCCNC(=N)NC3CCCCC3)nc(=O)n(Cc3ccc(Cl)c(Cl)c3)c2=O)cc1` [Cpd 62], the inhibition at 10 µM turned out to be 98% and the pIC50 is 7.23.

Take `COc1ccc(Cn2c(NCCNC(=N)NCc3ccccc3)nc(=O)n(Cc3ccc(Cl)c(Cl)c3)c2=O)cc1` [Cpd 63]: the inhibition at 10 µM came to 101% and the negative-log IC50 (pIC50) was 6.92.

Take `COc1ccc(Cn2c(NCCNC(=N)NCC3CCCO3)nc(=O)n(Cc3ccc(Cl)c(Cl)c3)c2=O)cc1` (stereo not shown) [Cpd 64]: the inhibition at 10 µM came to 100% and the negative-log IC50 (pIC50) was 7.14.

Take `COc1ccc(Cn2c(NCCNC(=N)NCCc3ccccc3)nc(=O)n(Cc3ccc(Cl)c(Cl)c3)c2=O)cc1` [Cpd 65]: the pIC50 was 6.31 and the “Ca^2+ Mobilization % Inh @10 μM” value is 88%.

With `COc1ccc(Cn2c(NCCNC(=N)NCc3ccco3)nc(=O)n(Cc3ccc(Cl)c(Cl)c3)c2=O)cc1` [Cpd 66], the inhibition at 10 µM is 99% and the pIC50 was 7.64.

For the compound `COCCNC(=N)NCCNc1nc(=O)n(Cc2ccc(Cl)c(Cl)c2)c(=O)n1Cc1ccc(OC)cc1` [Cpd 67], the inhibition at 10 µM is 99% and the pIC50 is 7.74.

Take `COc1ccc(Cn2c(NCCCNC(=N)N)nc(=O)n(Cc3ccc(Cl)c(Cl)c3)c2=O)cc1` [Cpd 68]: the inhibition at 10 µM came out at 84% and the pIC50 is 5.92.

For the compound `C=CCNC(=N)NCCNc1nc(=O)n(Cc2ccc(Cl)c(Cl)c2)c(=O)n1Cc1ccc(OC)cc1` [Cpd 70], the inhibition at 10 µM stood at 101%; the negative-log IC50 (pIC50) is 8.05 and 8.15; the “Ca^2+ Mobilization % Inh @10 μM” value was 101, 101%.

Take `COc1ccc(Cn2c(NCCNC(=N)Nc3ccccc3)nc(=O)n(Cc3ccc(Cl)c(Cl)c3)c2=O)cc1` [Cpd 71]: the inhibition at 10 µM came out at 100%; the negative logarithm of the IC50 (pIC50) was 7.92 and 8.15. Moreover, the “Ca^2+ Mobilization % Inh @10 μM” value (10 µM) amounted to 99%.

As for `COc1ccc(Cn2c(NCCNC(=N)Nc3ccc(OC)cc3)nc(=O)n(Cc3ccc(Cl)c(Cl)c3)c2=O)cc1` [Cpd 72], the inhibition at 10 µM was found to be 100% and the negative-log IC50 (pIC50) was 7.19.

For `COc1ccc(Cn2c(NCCNC(=N)Nc3ccc(Cl)cc3)nc(=O)n(Cc3ccc(Cl)c(Cl)c3)c2=O)cc1` [Cpd 73], the inhibition at 10 µM was determined as 100% and the pIC50 was 7.41.

On to `COc1ccc(Cn2c(NCCNC(=N)Nc3ccc(C(F)(F)F)cc3)nc(=O)n(Cc3ccc(Cl)c(Cl)c3)c2=O)cc1` [Cpd 74], for which the inhibition at 10 µM is 100% and the pIC50 was 6.86.

On to `COc1ccc(Cn2c(NCCNC(=N)Nc3cccnc3)nc(=O)n(Cc3ccc(Cl)c(Cl)c3)c2=O)cc1` [Cpd 75], for which the inhibition at 10 µM stood at 101% and the negative-log IC50 (pIC50) was 7.44.

`COc1ccc(Cn2c(NCCNC(=N)Nc3ccc(C(C)=O)cc3)nc(=O)n(Cc3ccc(Cl)c(Cl)c3)c2=O)cc1` [Cpd 76]: the inhibition at 10 µM was determined as 93% and the negative-log IC50 (pIC50) was 6.64.

Take `COc1ccc(Cn2c(NCCNC(=N)N)nc(=O)n(Cc3ccoc3)c2=O)cc1` [Cpd 77]: the inhibition at 10 µM turned out to be 81% and the negative-log IC50 (pIC50) was 6.10.

Take `COc1ccc(Cn2c(NCCNC(=N)N)nc(=O)n(Cc3cccs3)c2=O)cc1` [Cpd 78]: the inhibition at 10 µM amounted to 89% and the pIC50 was 6.52.

As to `COc1ccc(Cn2c(NCCNC(=N)N)nc(=O)n(C(C)c3ccc(OC)cc3)c2=O)cc1` (stereo not shown) [Cpd 79], the inhibition at 10 µM worked out at 101% and the negative-log IC50 (pIC50) is 7.15.

Consider `COc1ccc(Cn2c(NCCNC(=N)N)nc(=O)n(Cc3ccc(OC(F)F)cc3)c2=O)cc1` [Cpd 80], for which the inhibition at 10 µM was determined as 100% and the pIC50 is 7.15.

As for `COc1ccc(Cn2c(NCCNC(=N)N)cc(=O)n(Cc3ccccc3)c2=O)cc1` [Cpd 81, N-{2-[1-Benzyl-3-(4-methoxy-benzyl)-2,6-dioxo-1,2,3,6-tetrahydro-pyrimidin-4-ylamino]-ethyl}-guanidine], the inhibition at 10 µM came out at 84% and the pIC50 is 6.34.

As for `C=CCC(c1ccc(OC)cc1)n1c(=O)nc(NCCNC(=N)N)n(Cc2ccc(OC)cc2)c1=O` (stereo not shown) [Cpd 82], the inhibition at 10 µM was 84% and the pIC50 is 6.30.

For `C=CCC(c1ccc(Cl)cc1)n1c(=O)nc(NCCNC(=N)N)n(Cc2ccc(OC)cc2)c1=O` (stereo not shown) [Cpd 83], the inhibition at 10 µM turned out to be 80% and the negative-log IC50 (pIC50) was 6.01.

In the case of `COc1ccc(Cn2c(NCCNC(=N)N)cc(=O)n(Cc3ccc(OC)cc3)c2=O)cc1` [Cpd 84, N-{2-[1,3-Bis-(4-methoxy-benzyl)-2,6-dioxo-1,2,3,6-tetrahydro-pyrimidin-4-ylamino]-ethyl}-guanidine], the inhibition at 10 µM turned out to be 99% and the pIC50 is 7.38.

Consider `COc1ccc(Cn2c(=O)nc(NCCNC(=N)N)n(Cc3ccc(OC)nc3)c2=O)cc1` [Cpd 85], for which the inhibition at 10 µM worked out at 96% and the pIC50 is 7.29.

`COc1ccc(Cn2c(=O)nc(NCCNC(=N)N)n(CC3CCC(OC)CC3)c2=O)cc1` (stereo not shown) [Cpd 86]: the inhibition at 10 µM came to 61% and the pIC50 was 5.49.

For `N=C(N)NCCNc1nc(=O)n(Cc2ccc(F)cc2)c(=O)n1Cc1ccc([N+](=O)[O-])cc1` [Cpd 87], the inhibition at 10 µM was 38% and the negative-log IC50 (pIC50) was less than 5.00.

On to `COc1ccc(Cn2c(NCCNC(=N)NCCN3CCOCC3)nc(=O)n(Cc3ccc(F)cc3)c2=O)cc1` [Cpd 88], for which the inhibition at 10 µM turned out to be 59% and the negative logarithm of the IC50 (pIC50) is 5.32.

Take `COc1ccc(Cn2c(NCCNC(=N)NCCCN3CCOCC3)nc(=O)n(Cc3ccc(F)cc3)c2=O)cc1` [Cpd 89]: the inhibition at 10 µM came to 46% and the negative-log IC50 (pIC50) is 5.04.
